Laboratory results published in patent US4181573A, “Process for the production of antibiotic X-14547” (Hoffmann-La Roche Inc., priority 1978, dated 1980).
≈ marks a conversion by molar mass, not a printed value. Where “and” joins values, the source holds several entries; their conditions need not be identical. Identical values can stand only once.

Key:
[1] = test system: Bacillus species E ATCC 27859; test: Antimicrobial activity, agar well diffusion assay; type: cell-based; conditions: ATCC27859, lowest twofold dilution giving a zone of inhibition, read-out: Minimum inhibitory concentration
[2] = test system: Bacillus subtilis NRRL 558; test: Antimicrobial activity, agar well diffusion assay; type: cell-based; conditions: NRRL558, lowest twofold dilution giving a zone of inhibition, read-out: Minimum inhibitory concentration
[3] = test system: Bacillus species TA ATCC 27860; test: Antimicrobial activity, agar well diffusion assay; type: cell-based; conditions: ATCC27860, lowest twofold dilution giving a zone of inhibition, read-out: Minimum inhibitory concentration
[4] = test system: Paecilomyces varioti ATCC 26820; test: Antimicrobial activity, agar well diffusion assay; type: cell-based; conditions: ATCC26820, lowest twofold dilution giving a zone of inhibition, read-out: Minimum inhibitory concentration
[5] = Oral toxicity (LD50) in mice; conditions: mouse, in vivo
[6] = test system: DOCA-Na Sprague Dawley (Charles River) male rats; test: Antihypertensive activity in DOCA-Na hypertensive rats, systolic blood pressure; type: in vivo, rat; conditions: 10 MG/KG × 3 days PO; for SYSTOLIC BLOOD PRESSURE, PCT CHANGE: change from pre drug controls
Protocol: (§1) Antihypertensive activity is tested for in the DOCA-Na Sprague Dawley (Charles River) male rats weighing 170-210 grams. DOCA-Na hypertension is produced by unilateral nephrectomy followed by subcutaneous implantation of a 25 mg. desoxycortico sterone (DOCA) pellet. Animals are placed in individual cages receiving 0.9% sodium chloride solution and rat chow diet ad libitum. Two weeks are allowed to elapse from the time of surgery for development of hypertension, i.e., systolic blood pressure of at least 150 mm. Hg.
(§2) Systolic blood pressure and heart rate are measured indirectly from the tail of unanesthetized rats, using a pneumatic pulse transducer. Control readings are taken prior to drug and at 1, 3, 6 and 24 hours post drug.
(§3) The results are expressed as absolute values and percent changes from controls.

[7] = test system: Sarcina lutea ATCC 9341; test: Antimicrobial activity, agar well diffusion assay; type: cell-based; conditions: Micrococcus luteus, ATCC9341, lowest twofold dilution giving a zone of inhibition, read-out: Minimum inhibitory concentration
[8] = test system: Mycobacterium phlei ATCC 355; test: Antimicrobial activity, agar well diffusion assay; type: cell-based; conditions: Mycolicibacterium phlei, ATCC355, lowest twofold dilution giving a zone of inhibition, read-out: Minimum inhibitory concentration
[9] = test system: Staphylococcus aureus ATCC 6538P; test: Antimicrobial activity, agar well diffusion assay; type: cell-based; conditions: ATCC6538P, lowest twofold dilution giving a zone of inhibition, read-out: Minimum inhibitory concentration
[10] = test system: Bacillus megaterium ATCC 8011; test: Antimicrobial activity, agar well diffusion assay; type: cell-based; conditions: Priestia megaterium, ATCC8011, lowest twofold dilution giving a zone of inhibition, read-out: Minimum inhibitory concentration
[11] = test system: gram-positive bacteria; test: Growth of gram-positive bacteria (summary in words); type: cell-based
[12] = test system: ruminant animals; test: Efficiency of feed utilization on oral administration; type: in vivo; conditions: administered orally
[13] = test system: DOCA-Na Sprague Dawley (Charles River) male rats; test: Cardiac rate in DOCA-Na hypertensive rats; type: in vivo, rat; conditions: 10 MG/KG × 3 days PO; for CARDIAC RATE, PCT CHANGE: change from pre drug controls; for CARDIAC RATE, individual rats: rats 1-6
Protocol: as §1, §2, §3

[14] = test system: Streptomyces cellulosae ATCC 3313; test: Antimicrobial activity, agar well diffusion assay; type: cell-based; conditions: ATCC3313, lowest twofold dilution giving a zone of inhibition, read-out: Minimum inhibitory concentration
[15] = test system: volatile fatty acids produced in the rumen; test: In vitro rumen fermentation, ratio of volatile fatty acids (GLC); parameters: species or system steer; conditions: 4 hrs.; for μmoles C3 /μmoles C2 + μmoles nC4, means / μmoles C3 /μmoles C2 + μmoles nC4, replicate fermentations: 38° C.
Protocol: Rumen fluid is obtained from a steer with a fistulated rumen. The steer is maintained on the following ration:
The rumen fluid is immediately strained through a #30 mesh sieve. For each fermentation, 75 ml of the resulting fluid is added to a 250 ml flask containing the following:
1 g of 80%:20% finely ground grain: hay ration;
1 ml of an 18% aqueous glucose solution (1 millimole per flask);
1.5 ml of a 3.1% aqueous urea solution (0.76 millimole per flask);
60 micromoles of each of the 10 essential amino acids (arginine, histidine, leucine, methionine, threonine, valine, lysine, isoleucine, phenylalanine,tryptophan);
Carbon dioxide is continuously passed through the hood. […] Three ml of the supernate is added to 1 ml of a 25% metaphosphoric acid solution containing 23 micromoles 2-methyl valeric acid as an internal standard. The resulting fluid is permitted to sit at room temperature for 30 minutes. The fluid is filtered through a […] Millipore filter and refrigerated until gas-liquid chromatographic analyses for volatile fatty acids.

[16] = test system: Bacillus sp. TA ATCC 27860; test: Antimicrobial activity of co-metabolite (M.I.C.); type: cell-based; conditions: ATCC27860
From the text: (§4) *Minimum inhibitory concentration per ml. in mcg.

[17] = test system: Staphylococcus aureus ATCC 6538P; test: Antimicrobial activity of co-metabolite (M.I.C.); type: cell-based; conditions: ATCC6538P
From the text: as §4

[18] = test system: Paecilomyces varioti ATCC 26820; test: Antimicrobial activity of co-metabolite (M.I.C.); type: cell-based; conditions: ATCC26820
From the text: as §4

[19] = test system: Escherichia coli ATCC 27856; test: Antimicrobial activity of co-metabolite (M.I.C.); type: cell-based; conditions: ATCC27856
From the text: as §4

[20] = test system: Klebsiella pneumoniae ATCC 27858; test: Antimicrobial activity of co-metabolite (M.I.C.); type: cell-based; conditions: ATCC27858
From the text: as §4

[21] = test system: Pseudomonas aeruginosa ATCC 8709; test: Antimicrobial activity of co-metabolite (M.I.C.); type: cell-based; conditions: ATCC8709
From the text: as §4

Structure (SMILES): CCC(=CC=CC1C=CC2C(CC)CCC2C1C(=O)c1ccc[nH]1)C1OC(C(C)C(=O)O)CCC1C [Antibiotic X-14547, α-(R), 5 (S)-dimethyl-6(R)-{1-ethyl-4-[4-(R)-(2-pyrrolyl-carbonyl)-1(S)-ethyl-3a(R),4,5(R),7a(R)-tetrahydroindan-5-yl]-1(E), 3(E)-butadienyl}tetrahydropyran-2-acetic acid]
- MIC [1]: 0.2 µg/mL (≈ 0.405 µM)
- MIC [2]: 0.1 µg/mL (≈ 0.203 µM)
- MIC [3]: 0.2 µg/mL (≈ 0.405 µM)
- MIC [4]: 6.3 µg/mL (≈ 12.8 µM)
- LD50 at 24 h [5]: 129 mg/kg
- SYSTOLIC BLOOD PRESSURE, MEAN ([6]; day 1): 188.3 mmHg
- SYSTOLIC BLOOD PRESSURE, PCT CHANGE ([6]; day 1): -9.0 PCT
- SYSTOLIC BLOOD PRESSURE, individual rats ([6]; day 1, rats 1-6): 216 mmHg and 178 mmHg and 184 mmHg and 198 mmHg and 151 mmHg and 203 mmHg
- SYSTOLIC BLOOD PRESSURE, MEAN ([6]; day 2, first line): 185.7 mmHg
- SYSTOLIC BLOOD PRESSURE, PCT CHANGE ([6]; day 2, first line): -10.3 PCT
- SYSTOLIC BLOOD PRESSURE, individual rats ([6]; day 2, first line, rats): 211 mmHg and 201 mmHg and 176 mmHg and 168 mmHg and 190 mmHg
- SYSTOLIC BLOOD PRESSURE, MEAN ([6]; day 2, second line): 171.3 mmHg
- SYSTOLIC BLOOD PRESSURE, PCT CHANGE ([6]; day 2, second line): -17.1 PCT
- SYSTOLIC BLOOD PRESSURE, individual rats ([6]; day 2, second line, rats 1-6): 184 mmHg and 174 mmHg and 161 mmHg and 165 mmHg and 179 mmHg
- SYSTOLIC BLOOD PRESSURE, MEAN ([6]; day 3, first line): 205.0 mmHg
- SYSTOLIC BLOOD PRESSURE, PCT CHANGE ([6]; day 3, first line): -0.7 PCT
- SYSTOLIC BLOOD PRESSURE, individual rats ([6]; day 3, first line, rats 1-6): 214 mmHg and 195 mmHg and 193 mmHg and 219 mmHg and 198 mmHg and 211 mmHg
- SYSTOLIC BLOOD PRESSURE, MEAN ([6]; day 3, second line): 196.0 mmHg
- SYSTOLIC BLOOD PRESSURE, PCT CHANGE ([6]; day 3, second line): -5.2 PCT
- SYSTOLIC BLOOD PRESSURE, individual rats ([6]; day 3, second line, rats 1-6): 210 mmHg and 177 mmHg and 173 mmHg and 206 mmHg and 190 mmHg and 220 mmHg
- SYSTOLIC BLOOD PRESSURE, MEAN ([6]; day 4): 202.8 mmHg
- SYSTOLIC BLOOD PRESSURE, PCT CHANGE ([6]; day 4): -1.7 PCT
- SYSTOLIC BLOOD PRESSURE, individual rats ([6]; day 4, rats 1-6): 197 mmHg and 172 mmHg and 229 mmHg and 212 mmHg and 179 mmHg and 228 mmHg
- MIC [7]: 0.1 µg/mL (≈ 0.203 µM)
- MIC [8]: 3.1 µg/mL (≈ 6.28 µM)
- MIC [9]: 0.2 µg/mL (≈ 0.405 µM)
- MIC [10]: 0.1 µg/mL (≈ 0.203 µM)
- effect on growth of gram-positive bacteria [11]: adversely affecting the growth of certain gram-positive bacteria
- efficiency of feed utilization [12]: increases the efficiency of feed utilization in ruminant animals
- CARDIAC RATE, MEAN ([13]; day 1): 420.0 BEATS/MIN
- CARDIAC RATE, PCT CHANGE ([13]; day 1): 2.0 PCT
- CARDIAC RATE, individual rats ([13]; day 1): 480 BEATS/MIN and 360 BEATS/MIN and 450 BEATS/MIN and 440 BEATS/MIN and 390 BEATS/MIN and 400 BEATS/MIN
- CARDIAC RATE, MEAN ([13]; day 2, first line): 400.0 BEATS/MIN
- CARDIAC RATE, PCT CHANGE ([13]; day 2, first line): -2.6 PCT
- CARDIAC RATE, individual rats ([13]; day 2, first line): 430 BEATS/MIN and 320 BEATS/MIN and 360 BEATS/MIN and 490 BEATS/MIN and 370 BEATS/MIN
- CARDIAC RATE, MEAN ([13]; day 2, second line): 378.3 BEATS/MIN
- CARDIAC RATE, PCT CHANGE ([13]; day 2, second line): -8.1 PCT
- CARDIAC RATE, individual rats ([13]; day 2, second line): 420 BEATS/MIN and 310 BEATS/MIN and 400 BEATS/MIN and 380 BEATS/MIN and 450 BEATS/MIN
- CARDIAC RATE, MEAN ([13]; day 3, first line): 363.3 BEATS/MIN
- CARDIAC RATE, PCT CHANGE ([13]; day 3, first line): -11.3 PCT
- CARDIAC RATE, individual rats ([13]; day 3, first line): 380 BEATS/MIN and 360 BEATS/MIN and 370 BEATS/MIN and 350 BEATS/MIN
- CARDIAC RATE, MEAN ([13]; day 3, second line): 365.0 BEATS/MIN
- CARDIAC RATE, PCT CHANGE ([13]; day 3, second line): -10.8 PCT
- CARDIAC RATE, individual rats ([13]; day 3, second line): 370 BEATS/MIN and 360 BEATS/MIN and 350 BEATS/MIN and 380 BEATS/MIN
- CARDIAC RATE, MEAN ([13]; day 4): 356.7 BEATS/MIN
- CARDIAC RATE, PCT CHANGE ([13]; day 4): -13.1 PCT
- CARDIAC RATE, individual rats ([13]; day 4): 370 BEATS/MIN and 320 BEATS/MIN and 360 BEATS/MIN and 350 BEATS/MIN and 340 BEATS/MIN and 400 BEATS/MIN
- MIC [14]: 0.8 µg/mL (≈ 1.62 µM)
- ratio of propionate (C3) to acetates and n-butyrates ([15]; 10 and 25 ppm, versus controls): significantly improved
- μmoles C3 /μmoles C2 + μmoles nC4, means ([15]; 10 ppm): 0.491
- μmoles C3 /μmoles C2 + μmoles nC4, replicate fermentations ([15]; 10 ppm): 0.493 and 0.489
- μmoles C3 /μmoles C2 + μmoles nC4, means ([15]; 25 ppm): 0.521
- μmoles C3 /μmoles C2 + μmoles nC4, replicate fermentations ([15]; 25 ppm): 0.531 and 0.510

Structure (SMILES): CCC1(OC)C(=O)Nc2ccccc21 (stereo not drawn) [3-ethyl-1,3-dihydro-3-methoxy-2H-indole-2-one]
- effect on growth of gram-positive bacteria [11]: adversely affecting the growth of certain gram-positive bacteria
- MIC [16]: 2.5 µg/mL
- MIC [17]: 5 µg/mL
- MIC [18]: 2.5 µg/mL
- MIC [19]: 5 µg/mL
- MIC [20]: 5 µg/mL
- MIC [21]: 5 µg/mL
